Data on 5 compounds can be found in patent publication US20140087362A1 (priority 2012, published 2014).

“Also recorded” adds a separate entry of the source.

For one assay, the system named is ALDH1. As to the kind of experiment: ALDEFLUOR assay with or without DEAB. The format is cell-based, human. Here is the method: Aldehyde dehydrogenase (ALDH1) is a useful marker for isolating primitive stem cell populations including normal human mammary stem and progenitor cells as well as transformed tumor-initiating stem cells. In this example, GI-101A, MCF7, MDA-MB-231, Hs 578T, and SUM139PT breast cancer cell lines were tested for activity of the ALDH1 marker using a commercial assay to detect ALDH1 expression and thereby identify tumor stem cells (the ALDEFLUOR® assay (available from Stemcell™ Technologies, Vancouver BC, CA; see Ginestier et al. (2007) Cell Stem Cell 1(5):555-567)). […] The ALDH substrate fluoresces upon cleavage by ALDH.
ALDEFLUOR® assay fluorescence was excited at 488 nm and fluorescence emission was detected using a standard FITC 530/30 band pass filter. The sorting gates were established using propidium iodide stained cells for viability and the ALDEFLUOR® assay-stained cells treated with DEAB as negative controls.
To supplement the flow cytometric analysis, the presence of ALDH in GI-101A was assessed visually by fluorescence microscopy. ALDEFLUOR® assay-labeled cells, with or without DEAB, were counterstained with the nuclear dye 4′,6-diamidino-2-phenylindole (DAPI). Phase contrast and fluorescent images of the cells were taken using a fluorescence microscope, equipped with the appropriate filters and a digital camera, using a 100× objective.
First an ALDEFLUOR assay was performed on GI-101 cells in the presence or absence of DEAB inhibitor as described in Example 21. The ALDEFLUOR stained cells were then subjected to staining with CD44, CD24 and CD49f antibodies. The ALDEFLUOR stained cells were centrifuged for 10 minutes at 300×g at 4° C. and resuspended to a concentration of 2×10^7 cells per mL in cold staining buffer. 50 μL it of cells were added to 12×75 round bottoms tubes on ice for each stain. 10 μL diluted antibody mixture was added and incubated for 30-45 minutes in an ice bath to minimize release of the Hoechst dye. […] The cells were washed twice with 2 mL staining buffer at 4° C. The cells were resuspended in 400 μL it staining buffer and kept on ice until analyzed by flow cytometry.

Assay [1] deals with A549 lung cancer cell line. As to the kind of experiment: Side population by Hoechst 33342 staining and flow cytometry. The format is cell-based, human. Background: Flow cytometry measures light scatter and fluorescence of single cells or particles in a stream.
The test system of the next assay is mouse bone marrow cells. The assay is described as above.
The subject of the next assay is HMLE cells. As to the kind of experiment: EMT induction in human mammary epithelial cells. It counts as cell-based. Here is the method: Human mammary epithelial cells (HMLE; Dr. Robert A. Weinberg) were plated at a density of about 50% in DMEM/F-12 medium and incubated overnight at 37° C. in a CO2 incubator. The cells were then cultured in inducing medium (DMEM/F-12 (1:1) medium supplemented with insulin, hydrocortisone, 5% FBS, and 2.5 ng/mL TGF-β1) to induce EMT or non-inducing medium (i.e. without TGF-β1). The inducing medium or non-inducing medium was refreshed every 3 days for 12 days. Following EMT treatment, one set of cells were immunostained for E-cadherin, vimentin and fibronectin expression, three widely used EMT markers. Another set of cells was harvested, stained for CD44 and CD24 expression and analyzed by flow cytometry as described in Example 27.
For immunostaining of E-cadherin, vimentin and fibronectin, cells were fixed and permeabilized on the culture plates and incubated with FITC-conjugated antibodies against E-cadherin, vimentin and fibronectin using a standard cell staining protocol. Following removal of unbound antibody, the cells were counterstained with the nuclear dye 4′,6-diamidino-2-phenylindole (DAPI). After staining, phase contrast and fluorescent images of the cells were taken using a fluorescence microscope, equipped with the appropriate filters and a digital camera, using a 100× objective.

`CCN(CC)c1ccc(C=O)cc1` [DEAB]: the “ALDH− cells” value with ALDH1 (CD44/CD24 staining set) and in the assay on ALDH1 (CD44/CD49f staining set) was 99.9% in each case. Besides, the “ALDH+ cells” value with ALDH1 (CD44/CD49f staining set) worked out at 0.09%; in the assay with ALDH1 (GI-101 cells, CD44/CD24 staining set), 0.09%.

For the compound `COc1ccc2c3c([nH]c2c1)[C@H](C=C(C)C)N1C(=O)[C@@H]2CCCN2C(=O)[C@@H]1C3` [FTC, Fumitremorgin C], the side population cells was determined as 1.31±0.2% in assay [1] (25 μM), 0.92±0.2% in assay [1] (50 μM), 0.62±0.1% in assay [1] (100 μM) and 0.46±0.08% in assay [1] (200 μM).

On to `COc1ccc(CCN(C)CCCC(C#N)(c2ccc(OC)c(OC)c2)C(C)C)cc1OC` (stereo not shown) [Verapamil], for which the “side population, percent of registered events” value is listed as 3.74±0.3% in the assay on mouse bone marrow cells (50 μM) and 1.76±0.1% in the assay with mouse bone marrow cells (100 μM).

As to `COC(=O)[C@H]1[C@H]2C[C@@H]3c4[nH]c5cc(OC)ccc5c4CCN3C[C@H]2C[C@@H](OC(=O)c2cc(OC)c(OC)c(OC)c2)[C@@H]1OC` [reserpine], the side population cells in assay [1] (12.5 μM) is 1.51±0.1%; in assay [1] (25 μM) it was 0.56±0.08%; in assay [1] (50 μM) it was 0.51±0.01%; in assay [1] (200 μM), 0.48±0.06%.

Take “TGF-β1: transforming growth factor β used to induce EMT”: the “CD44^+/CD24^−/low cells” value in the assay on HMLE cells (2.5 ng/mL, 12 days EMT induction) was 51.9%±3. In addition, the “EMT marker expression (E-cadherin, vimentin, fibronectin)” value in the assay on HMLE cells (12 days post-EMT induction, versus non-induced) was “E-cadherin expression was down-regulated; also recorded: vimentin expression was up-regulated; also recorded: fibronectin expression was up-regulated”.
